Data: ChEMBL document CHEMBL1201862, “PubChem BioAssay data set” (2004)
Active and inactive are the calls of the source.

Assays:
Trypsin = Trypsin (Sus scrofa, UniProt P00761); assay: trypsin protease activity blockade – biochemical, quenched peptide fluorescence, cherry-pick, selectivity assay for Rce1 protease inhibitor project, dose response (AID 488789)
CAAX prenyl protease 2 [1] = molecular target: T1, CAAX prenyl protease 2 (Homo sapiens, UniProt Q9Y256); assay: inhibition of Ras-converting CAAX protease Rce1 – biochemical, yeast membranes, quenched-peptide fluorescence, cherry-pick, dose response (AID 588849)
T1 sequence (Q9Y256 whole entry): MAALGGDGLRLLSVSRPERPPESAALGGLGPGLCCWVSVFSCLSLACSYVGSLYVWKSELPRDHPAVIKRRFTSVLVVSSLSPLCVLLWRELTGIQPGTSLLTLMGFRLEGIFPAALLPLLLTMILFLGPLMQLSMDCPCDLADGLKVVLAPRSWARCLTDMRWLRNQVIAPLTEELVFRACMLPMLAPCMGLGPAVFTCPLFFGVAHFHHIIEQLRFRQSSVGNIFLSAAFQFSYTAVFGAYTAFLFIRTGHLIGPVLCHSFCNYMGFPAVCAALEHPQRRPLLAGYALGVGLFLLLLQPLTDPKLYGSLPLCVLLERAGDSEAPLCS

[2] = molecular target: T2, Mannose-6-phosphate isomerase (Homo sapiens, UniProt P34949); assay: MPI inhibition at elevated mannose 6-phosphate – biochemical, fluorescence intensity, high mannose 6-phosphate, primary screen (AID 1220)
T2 sequence (P34949 whole entry): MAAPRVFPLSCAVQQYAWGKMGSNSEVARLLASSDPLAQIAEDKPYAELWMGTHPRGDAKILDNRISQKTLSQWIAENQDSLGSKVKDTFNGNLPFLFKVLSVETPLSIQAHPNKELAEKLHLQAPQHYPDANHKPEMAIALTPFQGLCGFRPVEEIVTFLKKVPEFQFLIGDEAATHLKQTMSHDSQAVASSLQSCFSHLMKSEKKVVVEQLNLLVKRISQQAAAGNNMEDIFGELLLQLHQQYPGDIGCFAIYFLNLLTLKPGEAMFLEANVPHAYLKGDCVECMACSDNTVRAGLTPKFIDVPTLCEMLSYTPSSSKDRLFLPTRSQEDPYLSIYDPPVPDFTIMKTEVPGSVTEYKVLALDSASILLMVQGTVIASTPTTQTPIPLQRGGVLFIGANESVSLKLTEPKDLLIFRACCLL

[3] = NIH-3T3 fibroblast cytotoxicity, dose response, cytotoxicity control, cell-based, fluorescence, Alamar Blue, secondary assay (AID 2327); assay type: functional;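 further: NIH-3T3 mouse fibroblasts cultured with fluconazole at 8 µg/mL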
[4] = molecular target: E3 ubiquitin-protein ligase UHRF1 (Homo sapiens, UniProt Q96T88); assay: Counterscreen for inhibitors of 5-meCpG-binding domain protein 2 (MBD2): TRFRET-based biochemical high throughput dose response assay to identify inhibitors of binding of ubiquitin-like with PHD and ring finger domains 1 (UHRF1) to methylated oligonucleotide.
[5] = fluconazole-exposed Candida albicans growth modulators – fluorescence, retest, confirmation (AID 2467); assay type: functional, cell-based
[6] = molecular target: NAD-dependent protein deacylase sirtuin-5, mitochondrial (Homo sapiens, UniProt Q9NXA8); assay: sirtuin-5 deacylation blockers, concentration series – biochemical, fluorescence imaging, cherry-pick, set 5, dose response (AID 720591);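 further: desuccinylation of succinyl peptide AMC substrate read as fluorescence after trypsin release; potency of inhibitors that lower fluorescence and may act on trypsin instead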
[7] = molecular target: RNA-editing ligase 1, mitochondrial (Trypanosoma brucei brucei, UniProt P86926); assay: inhibition of trypanosome RNA editing ligase – biochemical, fluorescence, Trypanosoma brucei, dose response (AID 1117295); assay type: functional
[8] = molecular target: T3, Low molecular weight phosphotyrosine protein phosphatase (Homo sapiens, UniProt P24666); assay: inhibition of LMPTP-A enzymatic activity – biochemical, OMFP substrate, fluorescence intensity, set 2, dose response (AID 743307); assay type: functional
T3 sequence (P24666 whole entry): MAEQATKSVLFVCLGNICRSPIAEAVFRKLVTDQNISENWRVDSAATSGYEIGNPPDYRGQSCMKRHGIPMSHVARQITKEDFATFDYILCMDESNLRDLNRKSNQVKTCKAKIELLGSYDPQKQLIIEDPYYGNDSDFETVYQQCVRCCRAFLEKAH

[9] = molecular target: T3, Low molecular weight phosphotyrosine protein phosphatase; assay: inhibition of human LMPTP enzyme activity – biochemical, absorbance, pNPP substrate, LMPTP-A isoform, set 2, orthogonal assay, dose response (AID 743308); assay type: functional
Kallikrein-7 = Kallikrein-7 (Homo sapiens, UniProt P49862); assay: Fluorescence Intensity-based biochemical primary high throughput dose response assay to identify activators of kallikrein-7 (K7) zymogen.
CAAX prenyl protease 2 [10] = molecular target: T4, CAAX prenyl protease 2 (Saccharomyces cerevisiae S288c, UniProt Q03530); assay type: biochemical
T4 sequence (Q03530 whole entry): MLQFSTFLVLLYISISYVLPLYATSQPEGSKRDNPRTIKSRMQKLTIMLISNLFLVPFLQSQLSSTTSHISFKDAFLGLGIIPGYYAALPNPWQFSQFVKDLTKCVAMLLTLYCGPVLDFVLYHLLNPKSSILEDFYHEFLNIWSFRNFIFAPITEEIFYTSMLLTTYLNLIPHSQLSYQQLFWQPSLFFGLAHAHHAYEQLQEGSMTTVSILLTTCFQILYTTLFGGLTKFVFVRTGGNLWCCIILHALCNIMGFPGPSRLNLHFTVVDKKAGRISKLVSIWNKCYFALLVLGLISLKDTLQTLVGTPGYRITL

[11] = P. falciparum Dd2 growth inhibitors, dose response, SYBR Green, cherry-picked samples (AID 1159567); assay type: functional, cell-based
[12] = growth inhibition of yeast DHODH-expressing 3D7 parasites – SYBR Green, dry powder samples, dose response (AID 1159570); assay type: functional, cell-based;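 further: parasite growth measured after 72 hours of compound exposure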
[13] = T. cruzi growth inhibition in host cells, dose response, cell-based, plate reader, dry powder, set 2 (AID 652275); assay type: functional
[14] = Dd2 parasite growth inhibition in erythrocytes – SYBR Green, dry powder samples, set 9, dose response (AID 1159568); assay type: functional, cell-based
[15] = Dd2 malaria parasite growth inhibition potency – SYBR Green, dry powder samples, dose response (AID 1159566); assay type: functional, cell-based;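 further: potency for growth inhibition with lower SYBR green DNA signal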
[16] = growth inhibition of PfATP4-mutant resistant parasites – NITD609-resistant line, SYBR Green, dry powder, dose response (AID 1159571); assay type: functional, cell-based;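 further: parasites synchronized at ring stage by sorbitol before testing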

Sequence of Trypsin (P00761 whole entry): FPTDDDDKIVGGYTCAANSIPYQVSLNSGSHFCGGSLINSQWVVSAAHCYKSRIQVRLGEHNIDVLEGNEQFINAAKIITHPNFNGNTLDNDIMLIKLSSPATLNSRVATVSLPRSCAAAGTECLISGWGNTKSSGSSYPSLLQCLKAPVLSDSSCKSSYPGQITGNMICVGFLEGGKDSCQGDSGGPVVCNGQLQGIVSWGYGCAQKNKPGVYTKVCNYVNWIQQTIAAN
Sequence of NAD-dependent protein deacylase sirtuin-5, mitochondrial (Q9NXA8 whole entry): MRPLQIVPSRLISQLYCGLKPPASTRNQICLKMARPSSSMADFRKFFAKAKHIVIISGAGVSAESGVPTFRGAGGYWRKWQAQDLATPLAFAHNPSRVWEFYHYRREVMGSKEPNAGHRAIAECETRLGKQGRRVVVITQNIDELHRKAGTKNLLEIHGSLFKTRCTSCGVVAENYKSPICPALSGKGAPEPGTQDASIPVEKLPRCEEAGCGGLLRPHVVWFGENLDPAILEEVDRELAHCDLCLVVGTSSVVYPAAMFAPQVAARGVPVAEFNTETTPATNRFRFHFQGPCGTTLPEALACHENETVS
Sequence of RNA-editing ligase 1, mitochondrial (P86926 whole entry): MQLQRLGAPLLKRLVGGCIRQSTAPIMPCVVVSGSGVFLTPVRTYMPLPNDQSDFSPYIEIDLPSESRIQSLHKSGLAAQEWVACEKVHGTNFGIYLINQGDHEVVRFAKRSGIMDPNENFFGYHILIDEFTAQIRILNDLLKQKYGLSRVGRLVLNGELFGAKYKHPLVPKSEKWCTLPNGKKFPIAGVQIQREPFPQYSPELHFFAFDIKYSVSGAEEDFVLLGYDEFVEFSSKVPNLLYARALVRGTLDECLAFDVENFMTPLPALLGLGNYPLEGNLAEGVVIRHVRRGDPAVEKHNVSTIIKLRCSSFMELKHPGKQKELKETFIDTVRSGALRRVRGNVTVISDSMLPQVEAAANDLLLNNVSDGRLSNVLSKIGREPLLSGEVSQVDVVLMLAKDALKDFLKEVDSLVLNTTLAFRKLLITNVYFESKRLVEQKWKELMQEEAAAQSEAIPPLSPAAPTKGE
Sequence of E3 ubiquitin-protein ligase UHRF1 (Q96T88 whole entry, the tested form may be a part): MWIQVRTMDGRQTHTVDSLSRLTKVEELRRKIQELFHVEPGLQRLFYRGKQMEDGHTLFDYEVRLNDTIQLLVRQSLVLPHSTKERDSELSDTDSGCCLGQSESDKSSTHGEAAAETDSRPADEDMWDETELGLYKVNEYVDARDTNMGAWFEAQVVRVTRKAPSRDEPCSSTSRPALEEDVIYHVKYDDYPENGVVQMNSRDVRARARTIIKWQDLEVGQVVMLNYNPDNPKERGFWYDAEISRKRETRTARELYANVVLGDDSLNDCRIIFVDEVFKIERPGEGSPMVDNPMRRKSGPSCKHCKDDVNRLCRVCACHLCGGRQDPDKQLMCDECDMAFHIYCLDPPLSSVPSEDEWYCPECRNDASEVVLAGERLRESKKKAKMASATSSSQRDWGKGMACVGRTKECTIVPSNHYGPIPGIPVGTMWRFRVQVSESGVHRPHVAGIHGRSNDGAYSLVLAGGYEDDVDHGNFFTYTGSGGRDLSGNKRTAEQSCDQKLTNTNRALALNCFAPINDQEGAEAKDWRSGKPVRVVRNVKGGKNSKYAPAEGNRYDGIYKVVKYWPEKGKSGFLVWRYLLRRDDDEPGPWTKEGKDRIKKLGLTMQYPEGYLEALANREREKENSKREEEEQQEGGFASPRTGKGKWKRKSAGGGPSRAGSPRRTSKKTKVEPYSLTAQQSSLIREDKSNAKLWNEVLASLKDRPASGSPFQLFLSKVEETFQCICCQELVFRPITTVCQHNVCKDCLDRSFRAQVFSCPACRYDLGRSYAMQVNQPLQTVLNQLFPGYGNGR
Sequence of Kallikrein-7 (P49862 whole entry): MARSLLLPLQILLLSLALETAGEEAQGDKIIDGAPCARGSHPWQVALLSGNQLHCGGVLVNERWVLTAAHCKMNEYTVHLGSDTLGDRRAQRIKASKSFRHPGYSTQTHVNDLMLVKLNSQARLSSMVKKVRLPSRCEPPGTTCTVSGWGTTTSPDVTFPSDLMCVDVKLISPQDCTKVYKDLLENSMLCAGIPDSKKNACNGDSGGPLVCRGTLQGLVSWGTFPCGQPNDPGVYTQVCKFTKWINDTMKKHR

**Q.** For `COc1cc2c(C#N)c(N3CCCCC3)nc(N)c2c(N)n1`, which AC50 (Trypsin) is on record?
**A.** 13.6 µM (active)

**Q.** What about the AC50 (CAAX prenyl protease 2 [1]) of the same compound?
**A.** 20 µM (active)

**Q.** And the IC50 [2]?
**A.** > 50 µM (not active)

**Q.** For `Cc1ccc(-c2cc(-c3ccccc3)cc(-c3ccccc3)[n+]2-c2ccccc2C(=O)O)cc1.[O-][Cl+3]([O-])([O-])[O-]`, which EC50 [3] is on record?
**A.** > 160 µM (inactive)

**Q.** What about the IC50 [4] of the same compound?
**A.** 18.9 µM (inactive)

**Q.** What about the EC50 [5] of the same compound?
**A.** 3.23 µM (inconclusive)

**Q.** With `CC1=Nc2cc(C(=O)O)ccc2Sc2ccc(Br)cc21` as the compound, how does the AC50 [6] read?
**A.** 18.8 µM (active)

**Q.** Which IC50 [7] does the source give for `C#CCOCCOCCOCCNc1nc(N2CCN(C(=O)[C@H](CCCCN)n3cc([C@@H](N)CC(C)C)nn3)CC2)nc(N2CCN(C(=O)[C@H](Cc3cc4ccccc4[nH]3)n3cc([C@@H](N)CC(C)C)nn3)CC2)n1` here?
**A.** > 96.6 µM (inactive)

**Q.** For `COc1ccccc1-c1cc(NCCCN2CCCCC2)c2ccccc2n1`, which IC50 [8] is on record?
**A.** 2.87 µM (active)

**Q.** What about the IC50 [9] of the same compound?
**A.** 7.13 µM (active)

**Q.** With `Cc1oc2c(CN3CCCC3)c(O)ccc2c(=O)c1-c1ccc(Br)cc1` as the compound, how does the AC50 (Trypsin) read?
**A.** 9.06 µM (active)

**Q.** And the EC50 (Kallikrein-7)?
**A.** > 69.5 µM (inactive)

**Q.** What about the AC50 (CAAX prenyl protease 2 [1]) of the same compound?
**A.** 10 µM (active)

**Q.** What about the AC50 (CAAX prenyl protease 2 [10]) of the same compound?
**A.** 12 µM (active)

**Q.** With `CC(C)(C)[S+]([O-])N1Cc2cc(C(=O)NCc3ccc4c(c3)OCO4)nc(-c3cccc(-c4cc5ccccc5o4)c3)c2[C@H]1CCO` (stereo not given in full) as the compound, how does the AC50 [11] read?
**A.** 1.51 µM (active)

**Q.** And the AC50 [12]?
**A.** 1.46 µM (active)

**Q.** And the AC50 [13]?
**A.** 0.361 µM (active)

**Q.** And the AC50 [14]?
**A.** 2.2 µM (active)

**Q.** What about the AC50 [15] of the same compound?
**A.** 1.16 µM (active)

**Q.** And the AC50 [16]?
**A.** 1.21 µM (active)
